Laboratory results reported in paper PMC4974056, “The proposed channel-enzyme transient receptor potential melastatin 2 does not possess ADP ribose hydrolase activity” (eLife, 2016).
Values joined by “and” are separate entries in the source; they are usually repeats but may differ in a detail not shown here. Equal entries are not always repeated.

Experiments:
[1] = target: T5L-TRPM2 (Homo sapiens, UniProt O94759, G984L/INS985E/Y985D); assay: Excised inside-out patch-clamp recordings, ADPR-dependent channel activation; format: cell-based
Chain of T5L-TRPM2 (O94759 whole entry, stated change not applied): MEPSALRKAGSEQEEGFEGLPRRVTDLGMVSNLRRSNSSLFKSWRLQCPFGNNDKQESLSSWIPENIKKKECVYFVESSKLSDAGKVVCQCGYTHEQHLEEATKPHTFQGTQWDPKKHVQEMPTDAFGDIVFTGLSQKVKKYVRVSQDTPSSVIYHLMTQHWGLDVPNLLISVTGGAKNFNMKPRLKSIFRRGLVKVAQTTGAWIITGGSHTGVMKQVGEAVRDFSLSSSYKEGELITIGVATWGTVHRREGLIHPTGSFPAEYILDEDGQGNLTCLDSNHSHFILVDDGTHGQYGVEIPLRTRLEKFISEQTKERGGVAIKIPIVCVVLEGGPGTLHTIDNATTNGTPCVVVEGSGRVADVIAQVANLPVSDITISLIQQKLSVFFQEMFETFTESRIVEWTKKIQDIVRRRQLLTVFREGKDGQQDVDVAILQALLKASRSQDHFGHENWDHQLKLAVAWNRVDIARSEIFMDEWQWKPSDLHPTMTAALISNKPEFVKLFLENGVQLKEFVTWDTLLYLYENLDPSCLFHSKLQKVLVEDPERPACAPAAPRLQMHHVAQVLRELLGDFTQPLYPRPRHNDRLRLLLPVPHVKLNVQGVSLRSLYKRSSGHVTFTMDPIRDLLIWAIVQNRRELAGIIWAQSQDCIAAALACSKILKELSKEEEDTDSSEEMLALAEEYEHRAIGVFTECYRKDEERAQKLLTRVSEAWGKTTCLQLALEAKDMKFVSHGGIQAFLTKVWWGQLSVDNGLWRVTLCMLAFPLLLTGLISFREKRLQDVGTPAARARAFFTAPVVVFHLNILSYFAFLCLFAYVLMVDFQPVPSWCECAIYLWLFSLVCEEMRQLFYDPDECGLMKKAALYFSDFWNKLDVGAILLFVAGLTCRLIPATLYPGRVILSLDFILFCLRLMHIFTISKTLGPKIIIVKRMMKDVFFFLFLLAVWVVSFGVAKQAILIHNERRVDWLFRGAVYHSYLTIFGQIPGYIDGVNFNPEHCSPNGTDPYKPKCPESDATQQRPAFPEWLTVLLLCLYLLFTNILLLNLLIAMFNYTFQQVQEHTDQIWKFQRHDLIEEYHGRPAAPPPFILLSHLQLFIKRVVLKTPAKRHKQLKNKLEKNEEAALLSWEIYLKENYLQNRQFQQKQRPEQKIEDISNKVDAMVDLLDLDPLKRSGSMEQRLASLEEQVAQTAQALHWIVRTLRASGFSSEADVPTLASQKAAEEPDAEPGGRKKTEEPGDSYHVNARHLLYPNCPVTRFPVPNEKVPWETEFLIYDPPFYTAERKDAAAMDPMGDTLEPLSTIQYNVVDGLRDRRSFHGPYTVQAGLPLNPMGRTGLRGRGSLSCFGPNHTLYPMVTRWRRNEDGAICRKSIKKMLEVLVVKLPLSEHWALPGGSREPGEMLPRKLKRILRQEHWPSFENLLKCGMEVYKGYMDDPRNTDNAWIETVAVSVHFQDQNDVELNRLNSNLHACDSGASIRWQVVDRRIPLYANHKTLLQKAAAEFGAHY
Experimental: Oocytes isolated from anaesthetized Xenopus laevis were digested with collagenase, injected with 10–70 ng cRNA, and stored at 18°C. Recordings were done 2–3 days after injection.
The tip of the patch pipette was filled to ~1 cm height with 140 mM Na-gluconate, 2 mM Mg-gluconate2, 10 mM HEPES (pH 7.4 with NaOH); free [Ca^2+] ~4 μM. The pipette electrode was placed into a 140-mM NaCl-based solution carefully layered on top. Bath solution contained 140 mM Na-gluconate, 2 mM Mg-gluconate2, 10 mM HEPES (pH 7.1 with NaOH), and either 1 mM EGTA (to obtain 'zero' (~8 nM) Ca^2+) or 1 mM Ca-gluconate2 (to obtain 125 μM free Ca^2+) ([Csanády and Törocsik, 2009]). Na-ADPR was used at final concentrations of 0.32, 1, 3.2, 10, 32, 100, or 1000 μM, and the Na^+ salt of ε-ADPR at 100 μM. Macroscopic TRPM2 currents were recorded at 25°C at a membrane potential of −20 mV. Currents were amplified, filtered at 2 kHz (Axopatch 200B), digitized at 10 kHz (Digidata 1322A), and stored to disk (Pclamp9, Molecular Devices, Sunnyvale, CA, USA).
Dose dependence of ADPR-induced current activation, expressed as the ratio of mean macroscopic currents observed in the presence of various test [ADPR] (I) and 32 (or 100) μM ADPR (Imax) in the same patch, was fitted to the Hill equation (I/Imax = [ADPR]^n/(K^n+[ADPR]^n). Dose dependence of ADPR-activation in the presence of 100 μM ε-ADPR was expressed as the ratio of the currents observed in the presence of various test [ADPR] + 100 μM ε-ADPR (I) and 100 μM ADPR alone (Imax) in the same patch, and was fitted to the Hill equation substituting K' = K(1+[ε-ADPR]/KI) instead of K (K and n fixed to their control values). Macroscopic current decay time courses following removal of ADPR or Ca^2+ were fitted by single exponentials using the method of least squares.

[2] = target: T1, Chi4S (Homo sapiens, UniProt O94759); assay: Ligand binding assay based on quenching of ε-ADPR fluorescence; details: 100 μM Chi4S, 20 mM Tris pH 8.5/100 mM NaCl, 16 mM MgCl2; assuming negligible fluorescence of bound analog; read-out: Kd (upper estimate)
T1 construct: its C-terminal cytosolic NUDT9-homology (NUDT9H) domain; made in house; host or cells: E. coli BL21 (DE3), pJ411 plasmid
T1 sequence (O94759 with tags, fused parts or gaps limits assumed): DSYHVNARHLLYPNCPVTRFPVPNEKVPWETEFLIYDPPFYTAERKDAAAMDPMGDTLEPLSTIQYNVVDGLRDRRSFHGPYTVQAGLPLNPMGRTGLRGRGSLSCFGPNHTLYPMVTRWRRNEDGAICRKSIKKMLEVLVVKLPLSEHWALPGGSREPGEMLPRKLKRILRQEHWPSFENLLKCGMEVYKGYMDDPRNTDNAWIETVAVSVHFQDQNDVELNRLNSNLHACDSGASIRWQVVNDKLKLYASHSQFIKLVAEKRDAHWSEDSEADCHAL
Experimental: The ligand binding ability of purified Chi4S protein was assessed using fluorescence quenching of the ADPR analogue 1, N^6-ethenoadenosine-5’-O-diphosphoribose (ε-ADPR - BIOLOG Life Science Institute, Bremen, Germany). A 350-μl volume of 100 μM Chi4S protein in 20 mM Tris (pH 8.5)/100 mM NaCl buffer, supplemented with 16 mM MgCl2, was titrated by increasing concentrations of ε-ADPR. Fluorescence emission scans (350–700 nm) were recorded at a fixed excitation wavelength of 310 nm (Hitachi F-7000, Hitachi High Technologies, Maidenhead, UK). Fluorescence emission for ε-ADPR peaks at ~410 nm. Protein-free buffer or 100 μM bovine serum albumin (BSA; instead of Chi4S) were used as controls. Data are shown as mean ± S.D. of two independent experiments.
Dose dependence of fluorescence (Em = 420 nm) of free ε-ADPR (in buffer) was fitted by an empirical non-linear function to produce a smooth calibration curve, used to obtain upper estimates of free [ε-ADPR] in the presence of 100 μM Chi4S protein and various total [ε-ADPR], assuming negligible fluorescence for the bound, relative to the free, form of the analog. The plot of free vs. total [ε-ADPR] was fitted by the simple binding equation [ε-ADPR]free=0.5([ε-ADPR]total−[P]total−Kd+([ε-ADPR]total−[P]total−Kd)^2+4Kd[ε-ADPR]total),
where [P]total is the total concentration of Chi4S protein (100 μM), and Kd is a free parameter. […]

O=P(O)(OC[C@H]1OC(O)[C@H](O)[C@@H]1O)OP(=O)(O)OC[C@H]1O[C@@H](n2cnc3c2ncn2ccnc32)[C@H](O)[C@@H]1O (stereo partly drawn) [ε-ADPR, 1, N^6-ethenoadenosine-5’-O-diphosphoribose]
effect on ADPR-evoked TRPM2 currents ([1]; inside-out patch, 1 or 100 μM ADPR): suppressed ADPR-evoked TRPM2 currents in a dose-dependent manner
Ki ([1]; right-shift of ADPR dose response in the presence of 100 μM ε-ADPR, competitive fit, read-out: KI (Kε-ADPR) for binding to native NUDT9H): 112 ± 24 µM
Kd [2]: 111 µM and ≤ 111 µM
